Values joined by “and” are separate entries in the source; they are usually repeats but may differ in a detail not shown here. Equal entries are not always repeated.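 Five compound concentrations were applied to cells in 96-well plates for 48 hours; endpoints were derived by simple linear interpolation of the resulting dose-response curve. GI50: concentration for 50% inhibition of growth. At the TGI there is no net growth.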
Experiments:
Experiment in all cases: NCI tumour cell line growth inhibition, 48 h
A549 NSCLC = test system: A549 NSCLC
HCT-15 colon = test system: HCT-15 colon
HL-60(TB) leukemia = test system: HL-60(TB) leukemia
HOP-92 NSCLC = test system: HOP-92 NSCLC
HT29 colon = test system: HT29 colon
M14 melanoma = test system: M14 melanoma
NCI-H226 lung = test system: NCI-H226 lung
NCI/ADR-RES ovarian = test system: NCI/ADR-RES ovarian
OVCAR-5 ovarian = test system: OVCAR-5 ovarian
SF-295 CNS = test system: SF-295 CNS

Structure (SMILES) | GI50 (A549 NSCLC) [µM] | TGI (A549 NSCLC) [µM] | GI50 (HCT-15 colon) [µM] | TGI (HCT-15 colon) | GI50 (HL-60(TB) leukemia) [µM] | TGI (HL-60(TB) leukemia) | GI50 (HOP-92 NSCLC) [µM] | TGI (HOP-92 NSCLC) [µM] | GI50 (HT29 colon) [µM] | TGI (HT29 colon) [µM] | GI50 (M14 melanoma) [µM] | TGI (M14 melanoma) [µM] | GI50 (NCI-H226 lung) [µM] | TGI (NCI-H226 lung) [µM] | GI50 (NCI/ADR-RES ovarian) [µM] | TGI (NCI/ADR-RES ovarian) | GI50 (OVCAR-5 ovarian) [µM] | TGI (OVCAR-5 ovarian) [µM] | GI50 (SF-295 CNS) [µM] | TGI (SF-295 CNS) [µM]
O=Nc1c2cccnc2n2nnc3ccc(Cl)cc3c12 | 3.98 | 23.8 | 0.94 | 5.75 µM | 0.272 | 50 µM | 0.0999 | 1.75 | 1.27 | 14.5 | 2.84 | 8.36 | 4.96 | 21 | 1.29 | 7.84 µM | 3.6 | 14.5 | 4.24 | 16.2
OC1CCC(C2C3CCCCC3C3CCCCC3C2C2CCC(O)CC2)CC1 (stereo unspecified) | – | > 100 | – | 6.14 µM | – | 62.2 µM | – | 98.9 | – | 3.96 | – | > 100 | – | > 100 | – | > 100 µM | – | > 100 | – | 27.3
O=C1/C(=C\c2cccs2)Oc2ccccc21 | – | > 100 | – | > 100 µM | – | > 100 µM | – | 89 | – | > 100 | – | > 100 | – | > 100 | – | > 100 µM | – | > 100 | – | > 100
COc1ccc(N=Cc2ccc(N(CCC#N)CCC#N)cc2)cc1 | – | > 100 | – | > 100 µM | – | > 100 µM | – | > 100 | – | > 100 | – | > 100 | – | > 100 | – | > 100 µM | – | > 100 | – | > 100
C=C(CNCCO)[C@@H]1CC[C@]2(CO)CC[C@]3(C)[C@H](CC[C@@H]4[C@@]5(C)CCC(NCCc6ccc(O)cc6)C(C)(C)[C@@H]5CC[C@]43C)[C@@H]12 (stereo partly specified) | 1.43 | 2.74 | 1.36 | 2.82 µM | 2 | 4.08 µM | 0.822 | 2.29 | 0.263 | 0.763 | 0.187 | 0.398 | 1.69 | 3.48 | 2.18 | 5.1 µM | 1.7 | 3.29 | 1.51 | 2.96
N#C/C(=C(\O)C(=O)O)c1ccc(-c2cccc3ccccc23)cc1 | – | > 100 | – | > 100 µM | – | 81.9 µM | – | > 100 | – | > 100 | – | > 100 | – | > 100 | – | > 100 µM | – | > 100 | – | > 100
Cc1ccc2c(c1)sc(-c1ccc(N(C)C)cc1)[n+]2C | 0.741 | – | 18.8 | > 100 µM | 0.273 | 10.5 µM | 0.719 | 5.36 | 0.854 | > 37.9 | 1.79 | > 38 | 3.26 | > 100 | > 95.8 | > 100 µM | – | > 100 | 0.72 | > 22.8
O=C1NC(=O)C(c2ccccc2Cl)=C1Nc1cccc(O)c1 | 11.2 | > 25 | 2.47 | > 25 µM | 4.93 | > 25 µM | 8.53 | > 25 | 2.79 | > 25 | > 25 | > 25 | 6.19 | > 25 | 3.2 | > 25 µM | > 20.5 | > 25 | 8.32 | > 25
OCCCNCc1ccccn1 | – | > 100 | – | > 100 µM | – | > 100 µM | – | > 100 | – | > 100 | – | > 100 | – | > 100 | – | > 100 µM | – | > 100 | – | > 100
CCCCS(=N)(=O)CC[C@H](N)C(=O)O (stereo partly specified) | > 8030 | > 10000 | > 6960 | 4940 µM and > 10000 µM | 32.9 | 1270 µM and 224 µM | 945 | – | > 10000 | > 10000 | > 5620 | > 5620 | > 10000 | > 10000 | 1770 | 5000 µM and > 6020 µM | > 10000 | > 10000 | – | > 10000
NC(=O)c1ccccc1NC(=O)C(=O)C(c1cnc2ccc([N+](=O)[O-])cc2n1)[N+](=O)[O-] (stereo unspecified) | – | > 100 | – | > 100 µM | – | > 100 µM | – | > 100 | – | > 100 | – | > 100 | – | > 100 | – | > 100 µM | – | > 100 | – | > 100
